Source: US12077503B2, “Substituted cyclic amides and their use as herbicides” (FMC CORPORATION, priority 2015, dated 2024)

Tests used:
Format in all cases: in vivo
[1] = test system: giant foxtail (Setaria faberii); assay: Test A postemergence; details: Setaria faberi, post-emergence, 240 h, postemergence
How it was run: (§1)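 Compounds were formulated in a non-phytotoxic solvent mixture with surfactant and applied as a preemergence directed soil spray after seeding, or sprayed postemergence over plants 2 to 10 cm tall at the one- to two-leaf stage. Evaluation after about 10 d compared treated with untreated controls, using a scale from 0 (no effect) to 100 (complete control).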

[2] = test system: ryegrass, Italian (Italian ryegrass, Lolium multiflorum); assay: Test A postemergence; details: Lolium multiflorum, post-emergence, 240 h, postemergence
How it was run: as §1

[3] = test system: corn (Zea mays); assay: Test A postemergence; details: Zea mays, post-emergence, 240 h, postemergence
How it was run: as §1

[4] = test system: barnyardgrass (Echinochloa crus-galli); assay: Test A postemergence; details: Echinochloa crus-galli, post-emergence, 240 h, postemergence
How it was run: as §1

[5] = test system: Galium (catchweed bedstraw, Galium aparine); assay: Test A postemergence; details: Galium, post-emergence, 240 h, postemergence
How it was run: as §1

[6] = test system: Kochia (Kochia scoparia); assay: Test A postemergence; details: Bassia scoparia, post-emergence, 240 h, postemergence
How it was run: as §1

[7] = test system: wheat (Triticum aestivum); assay: Test A postemergence; details: Triticum aestivum, post-emergence, 240 h, 125 g ai/ha, postemergence, visual injury vs untreated controls after approx. 10 d; 0 = no effect, 100 = complete control; read-out: Wheat plant response rating (0 to 100 scale)
How it was run: as §1

[8] = test system: pigweed (Amaranthus retroflexus); assay: Test A postemergence; details: Amaranthus retroflexus, post-emergence, 240 h, postemergence
How it was run: as §1

[9] = test system: ragweed (common ragweed, Ambrosia elatior); assay: Test A postemergence; details: Ambrosia artemisiifolia, post-emergence, 240 h, postemergence
How it was run: as §1

[10] = test system: giant foxtail (Setaria faberii); assay: Test A preemergence; details: Setaria faberi, pre-emergence, 240 h, preemergence, 0 to 100 scale where 0 is no effect and 100 is complete control, read-out: Foxtail, Giant plant response rating
How it was run: as §1

[11] = test system: ryegrass, Italian (Italian ryegrass, Lolium multiflorum); assay: Test A preemergence; details: Lolium multiflorum, pre-emergence, 240 h, preemergence, 0 to 100 scale where 0 is no effect and 100 is complete control, read-out: Ryegrass, Italian plant response rating
How it was run: as §1

[12] = test system: barnyardgrass (Echinochloa crus-galli); assay: Test A preemergence; details: Echinochloa crus-galli, pre-emergence, 240 h, preemergence, 0 to 100 scale where 0 is no effect and 100 is complete control, read-out: Barnyardgrass plant response rating
How it was run: as §1

[13] = test system: Kochia (Kochia scoparia); assay: Test A preemergence; details: Bassia scoparia, pre-emergence, 240 h, preemergence, 0 to 100 scale where 0 is no effect and 100 is complete control, read-out: Kochia plant response rating
How it was run: as §1

[14] = test system: pigweed (Amaranthus retroflexus); assay: Test A preemergence; details: Amaranthus retroflexus, pre-emergence, 240 h, preemergence, 0 to 100 scale where 0 is no effect and 100 is complete control, read-out: Pigweed plant response rating
[15] = test system: ragweed (common ragweed, Ambrosia elatior); assay: Test A preemergence; details: Ambrosia artemisiifolia, pre-emergence, 240 h, preemergence, 0 to 100 scale where 0 is no effect and 100 is complete control, read-out: Ragweed plant response rating
How it was run: as §1

[16] = 125 g ai/ha, visual injury rating, approximately 10 d

CN1C[C@H](c2ccc(F)c(Br)c2)[C@@H](C(=O)Nc2cccc(F)c2F)C1=O [Compound 1234] showed a pest or weed control at 125 g/ha ([1]; 125 g ai/ha, visual injury vs untreated controls after approx. 10 d, 0 = no effect, 100 = complete control, read-out: Foxtail, Giant plant response rating (0 to 100 scale)) of 80%, a pest or weed control at 500 g/ha ([1]; 500 g ai/ha, 0 to 100 scale, 0 is no effect, 100 is complete control, read-out: Foxtail, Giant plant response rating) of 90% and a pest or weed control at 125 g/ha ([2]; 125 g ai/ha, visual injury vs untreated controls after approx. 10 d, 0 = no effect, 100 = complete control, read-out: Ryegrass, Italian plant response rating (0 to 100 scale)) of 40%. The pest or weed control at 500 g/ha ([2]; 500 g ai/ha, 0 to 100 scale, 0 is no effect, 100 is complete control, read-out: Ryegrass, Italian plant response rating) was 70%, the plant injury at 125 g/ha ([3]; 125 g ai/ha, visual injury vs untreated controls after approx. 10 d, 0 = no effect, 100 = complete control, read-out: Corn plant response rating (0 to 100 scale)) was 80% and the plant injury at 500 g/ha ([3]; 500 g ai/ha, 0 to 100 scale, 0 is no effect, 100 is complete control, read-out: Corn plant response rating) was 100%. It also gave a pest or weed control at 125 g/ha ([4]; 125 g ai/ha, visual injury vs untreated controls after approx. 10 d, 0 = no effect, 100 = complete control, read-out: Barnyardgrass plant response rating (0 to 100 scale)) of 90%, a pest or weed control at 500 g/ha ([4]; 500 g ai/ha, 0 to 100 scale, 0 is no effect, 100 is complete control, read-out: Barnyardgrass plant response rating) of 90% and a pest or weed control at 125 g/ha ([5]; 125 g ai/ha, visual injury vs untreated controls after approx. 10 d, 0 = no effect, 100 = complete control, read-out: Galium plant response rating (0 to 100 scale)) of 50%. The pest or weed control at 500 g/ha ([5]; 500 g ai/ha, 0 to 100 scale, 0 is no effect, 100 is complete control, read-out: Galium plant response rating) was 60%, the pest or weed control at 125 g/ha ([6]; 125 g ai/ha, visual injury vs untreated controls after approx. 10 d, 0 = no effect, 100 = complete control, read-out: Kochia plant response rating (0 to 100 scale)) was 40% and the pest or weed control at 500 g/ha ([6]; 500 g ai/ha, 0 to 100 scale, 0 is no effect, 100 is complete control, read-out: Kochia plant response rating) was 50%. For the same compound, the plant injury at 125 g/ha [7] was 40%, the pest or weed control at 125 g/ha ([8]; 125 g ai/ha, visual injury vs untreated controls after approx. 10 d, 0 = no effect, 100 = complete control, read-out: Pigweed plant response rating (0 to 100 scale)) was 20% and the pest or weed control at 500 g/ha ([8]; 500 g ai/ha, 0 to 100 scale, 0 is no effect, 100 is complete control, read-out: Pigweed plant response rating) was 50%. For the same compound, the pest or weed control at 125 g/ha ([9]; 125 g ai/ha, visual injury vs untreated controls after approx. 10 d, 0 = no effect, 100 = complete control, read-out: Ragweed plant response rating (0 to 100 scale)) was 30%, the pest or weed control at 500 g/ha ([9]; 500 g ai/ha, 0 to 100 scale, 0 is no effect, 100 is complete control, read-out: Ragweed plant response rating) was 30% and the pest or weed control at 125 g/ha [10, 16] was 100%. For the same compound, the pest or weed control at 500 g/ha ([10]; 500 g ai/ha) was 100%, the pest or weed control at 125 g/ha [11, 16] was 40% and the pest or weed control at 500 g/ha ([11]; 500 g ai/ha) was 80%. For the same compound, the pest or weed control at 125 g/ha [12, 16] was 100%, the pest or weed control at 500 g/ha ([12]; 500 g ai/ha) was 100% and the pest or weed control at 125 g/ha [13, 16] was 70%. For the same compound, the pest or weed control at 500 g/ha ([13]; 500 g ai/ha) was 80%, the pest or weed control at 125 g/ha [14, 16] was 70% and the pest or weed control at 500 g/ha ([14]; 500 g ai/ha) was 90%. It also gave a pest or weed control at 125 g/ha [15, 16] of 40% and a pest or weed control at 500 g/ha ([15]; 500 g ai/ha) of 60%.
